Here are results for 20 compounds from patent US8785429B2, “Dihydropyrrolonaphthyridinone compounds as inhibitors of JAK” (Takeda Pharmaceutical Company Limited, priority 2009, dated 2014).

The target in one assay is T1, JAK3 (Homo sapiens, UniProt P52333).
T1 construct: purchased Invitrogen
T1 sequence (P52333 1-1124): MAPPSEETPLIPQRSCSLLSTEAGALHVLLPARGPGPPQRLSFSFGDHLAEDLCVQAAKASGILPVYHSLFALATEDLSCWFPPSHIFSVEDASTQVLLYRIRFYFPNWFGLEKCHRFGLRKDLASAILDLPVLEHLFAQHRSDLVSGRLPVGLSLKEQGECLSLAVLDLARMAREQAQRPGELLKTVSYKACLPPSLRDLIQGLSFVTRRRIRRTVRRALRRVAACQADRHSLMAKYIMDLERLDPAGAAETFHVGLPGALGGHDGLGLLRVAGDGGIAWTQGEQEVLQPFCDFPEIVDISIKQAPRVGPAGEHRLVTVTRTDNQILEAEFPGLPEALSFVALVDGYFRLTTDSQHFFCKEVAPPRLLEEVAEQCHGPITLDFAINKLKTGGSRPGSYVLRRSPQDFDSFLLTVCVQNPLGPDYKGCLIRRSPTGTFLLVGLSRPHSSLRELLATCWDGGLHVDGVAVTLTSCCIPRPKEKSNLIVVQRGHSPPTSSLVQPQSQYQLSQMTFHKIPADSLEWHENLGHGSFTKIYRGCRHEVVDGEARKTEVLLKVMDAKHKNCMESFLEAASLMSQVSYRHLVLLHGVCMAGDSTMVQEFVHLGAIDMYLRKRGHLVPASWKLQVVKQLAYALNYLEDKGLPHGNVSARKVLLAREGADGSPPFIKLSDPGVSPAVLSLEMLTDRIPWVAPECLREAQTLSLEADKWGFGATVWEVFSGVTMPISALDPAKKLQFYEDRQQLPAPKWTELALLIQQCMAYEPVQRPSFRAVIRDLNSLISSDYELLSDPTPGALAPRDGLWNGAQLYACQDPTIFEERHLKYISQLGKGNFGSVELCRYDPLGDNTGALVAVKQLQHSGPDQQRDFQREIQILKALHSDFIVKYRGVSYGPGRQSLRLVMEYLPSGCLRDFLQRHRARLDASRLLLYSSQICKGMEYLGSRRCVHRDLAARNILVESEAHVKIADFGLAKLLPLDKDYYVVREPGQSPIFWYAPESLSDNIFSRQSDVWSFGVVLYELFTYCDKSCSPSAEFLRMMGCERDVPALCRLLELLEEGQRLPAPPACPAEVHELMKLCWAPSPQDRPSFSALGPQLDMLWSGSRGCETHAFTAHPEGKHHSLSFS
In words: Assay for JAK3 Inhibition (phosphorylation of FAM-labeled substrate, Caliper LC-3000). The assay is classed as biochemical. The following applies: −log10(IC50), IC50 is the molar concentration at 50% inhibition; read-out: JAK3 pIC50 (converted). On the procedure:
(§1) A compound's ability to inhibit JAK activity may be assessed using a variety of methods, including in vitro and in vivo assays. The following in vitro assays measure a test compound's ability to inhibit JAK2- and JAK3-mediated phosphorylation of FAM-labeled JAK-specific substrates.
(§2) Purified JAK2 and JAK3 proteins were purchased from Invitrogen. JAK2 and JAK3 inhibition is determined using a black 384-well-plate format in buffer containing 50 mM HEPES, 10 mM NaCl, 10 mM MgCl2, 0.2 mM EDTA, 0.01% EDA (Brij® 35), 1 mM DTT, 0.1 mg/mL BSA at pH 7.3. Each test compound is prepared in DMSO using 2-fold serial dilutions for 11 data points and is added to the buffer so that each dilution contains 3% DMSO.
To each well is added 2 μL of 3 μM 5FAM-KKKKEEIYFFFG-NH2 and 15 μM ATP (in buffer), 2 μL of diluted test compound (3% DMSO in medium), and 2 μL of 1.2 nM JAK3 in buffer. The reaction mixture is incubated at room temperature for 60 min and is quenched by adding 50 mM HEPES, 30 mM EDTA, and 0.1% Tx-100 (pH 7.3). To quantify the fluorescent-labeled substrate and product following reaction, the test plate is loaded on a Caliper LC-3000, which measures percent of conversion by microfluidic-based separation.
(§3) Corresponding IC50 values are calculated by non-linear curve fitting of the compound concentrations and percent of inhibition to the standard IC50 equation.

For the next assay, the target named is T2, JAK2 (Homo sapiens, UniProt O60674).
T2 construct: purchased Invitrogen
T2 sequence (O60674 whole entry): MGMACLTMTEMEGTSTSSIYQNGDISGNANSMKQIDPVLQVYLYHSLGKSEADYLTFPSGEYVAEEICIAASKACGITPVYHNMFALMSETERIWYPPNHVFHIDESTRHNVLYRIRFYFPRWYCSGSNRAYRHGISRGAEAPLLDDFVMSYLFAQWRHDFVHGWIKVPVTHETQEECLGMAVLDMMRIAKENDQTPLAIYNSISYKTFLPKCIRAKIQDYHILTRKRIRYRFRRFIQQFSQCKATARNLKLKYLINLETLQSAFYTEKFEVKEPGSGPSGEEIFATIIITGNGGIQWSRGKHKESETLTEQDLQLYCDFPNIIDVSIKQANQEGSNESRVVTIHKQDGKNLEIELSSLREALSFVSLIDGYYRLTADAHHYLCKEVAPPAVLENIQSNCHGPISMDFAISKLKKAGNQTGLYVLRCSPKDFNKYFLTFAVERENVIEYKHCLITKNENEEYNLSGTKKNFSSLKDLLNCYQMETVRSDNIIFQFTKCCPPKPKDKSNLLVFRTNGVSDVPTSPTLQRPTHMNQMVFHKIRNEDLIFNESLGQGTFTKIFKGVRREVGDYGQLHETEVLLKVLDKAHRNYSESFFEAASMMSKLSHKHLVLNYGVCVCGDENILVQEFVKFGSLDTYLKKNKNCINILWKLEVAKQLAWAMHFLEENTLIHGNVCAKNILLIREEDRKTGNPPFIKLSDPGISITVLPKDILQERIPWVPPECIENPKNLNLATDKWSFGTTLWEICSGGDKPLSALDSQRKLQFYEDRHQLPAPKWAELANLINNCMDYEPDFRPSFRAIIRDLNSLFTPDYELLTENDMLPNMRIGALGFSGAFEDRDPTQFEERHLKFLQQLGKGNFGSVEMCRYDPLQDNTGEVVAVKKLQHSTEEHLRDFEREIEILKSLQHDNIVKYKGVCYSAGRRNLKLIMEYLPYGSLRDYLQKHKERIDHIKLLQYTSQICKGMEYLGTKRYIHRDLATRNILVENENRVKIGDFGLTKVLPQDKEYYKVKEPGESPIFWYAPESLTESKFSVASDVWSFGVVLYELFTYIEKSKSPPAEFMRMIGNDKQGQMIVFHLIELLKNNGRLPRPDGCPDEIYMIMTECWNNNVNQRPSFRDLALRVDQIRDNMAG
The assay is described as follows: Assay for JAK2 Inhibition (phosphorylation of FAM-labeled substrate, Caliper LC-3000). The assay is classed as biochemical. The following applies: −log10(IC50), IC50 is the molar concentration at 50% inhibition; read-out: JAK2 pIC50 (converted). On the procedure:
as §1, §2
To each well is added 2 μL of 3 μM 5FAM-KKKKEEIYFFFG-NH2 and 45 μM ATP (in buffer), 2 μL of diluted test compound (3% DMSO in medium), and 2 μL of 0.6 nM JAK2 in buffer. The reaction mixture is incubated at room temperature for 60 min and is quenched by adding 50 mM HEPeX, 30 mM EDTA, and 0.1% Tx-100 (pH 7.3). To quantify the fluorescent-labeled substrate and product following reaction, the test plate is loaded on a Caliper LC-3000, which measures percent of conversion by microfluidic-based separation.
as §3

Molecules are shown by their SMILES.

Turning to `CC[C@H](C(=O)N1CCC(O)C1)N1Cc2ccnc3[nH]cc(c23)C1=O` (stereo partly drawn) [Example 56, 4-((2R)-1-(3-hydroxypyrrolidin-1-yl)-1-oxobutan-2-yl)-4,5-dihydropyrrolo[4,3,2-de][2,6]naphthyridin-3(1 H)-one], the results for the IC50 on JAK3 and at JAK2 were 631 nM and 10000 nM, respectively.

Regarding `CC[C@H](C)[C@H](C(=O)NC1CCCC1)N1Cc2ccnc3[nH]cc(c23)C1=O` [Example 24, (2R,3S)—N-cyclopentyl-3-methyl-2-(3-oxopyrrolo[4,3,2-de][2,6]naphthyridin-4(1H,3H,5H)-yl)pentanamide], the IC50 on JAK3 was 1580 nM; at JAK2 it was 12600 nM.

Turning to `CCC(CC)N1Cc2c[nH]c3nccc(c23)C1=O` [Example 10, 4-(pentan-3-yl)-3,4-dihydropyrrolo[4,3,2-de][2,6]naphthyridin-5(1H)-one], the IC50 on JAK3 is 100 nM; on JAK2 it was 79.4 nM.

In the case of `CC(C)[C@H](C(=O)NOCC1CC1)N1Cc2c(F)cnc3[nH]cc(c23)C1=O` [Example 49, (R)—N-(cyclopropylmethoxy)-2-(6-fluoro-3-oxopyrrolo[4,3,2-de][2,6]naphthyridin-4(1H,3H,5H)-yl)-3-methylbutanamide], the figures for the IC50 at JAK3 and at JAK2 were 100 nM and 2000 nM, respectively.

Turning to `CC1(N2Cc3c[nH]c4nccc(c34)C2=O)CCN(C(=O)CC#N)CC1` [Example 6, 3-(4-methyl-4-(5-oxopyrrolo[4,3,2-de][2,6]naphthyridin-4(1H,3H,5H)-yl)piperidin-1-yl)-3-oxopropanenitrile], the IC50 on JAK3 was 501 nM; at JAK2, 79.4 nM.

As to `O=C1c2ccnc3[nH]cc(c23)CN1C1CCNCC1` [Example 2, 4-(piperidin-4-yl)-3,4-dihydropyrrolo[4,3,2-de][2,6]naphthyridin-5(1H)-one], the IC50 on JAK3 is 3980 nM; on JAK2, 6310 nM.

Take `CC(C)[C@H](C(=O)Nc1ccc(C#N)cc1)N1Cc2c(Cl)cnc3[nH]cc(c23)C1=O` [Example 35, (R)-2-(6-chloro-3-oxopyrrolo[4,3,2-de][2,6]naphthyridin-4(1H,3H,5H)-yl)-N-(4-cyanophenyl)-3-methylbutanamide]: the values for the IC50 at JAK3 and on JAK2 were 316 nM and 2510 nM, respectively.

For the compound `CC(C#N)NC(=O)[C@@H](C(C)C)N1Cc2c(F)cnc3[nH]cc(c23)C1=O` (stereo partly drawn) [Example 75, (2R)—N-(1-cyanoethyl)-2-(6-fluoro-3-oxopyrrolo[4,3,2-de][2,6]naphthyridin-4(1H,3H,5H)-yl)-3-methylbutanamide], the IC50 is 31.6 nM on JAK3 and 794 nM on JAK2.

For `CC(C)[C@H](C(=O)N1CCS(=O)(=O)CC1)N1Cc2c(F)cnc3[nH]cc(c23)C1=O` [Example 48, 4-{(1R)-1-[(1,1-dioxidothiomorpholin-4-yl)carbonyl]-2-methylpropyl}-6-fluoro-4,5-dihydropyrrolo[4,3,2-de][2,6]naphthyridin-3(1H)-one], the IC50 on JAK3 was 251 nM; on JAK2 it was 5010 nM.

For `O=C1c2ccnc3[nH]cc(c23)CN1C(CCO)C1CC1` (stereo not shown) [Example 11, 4-(1-cyclopropyl-3-hydroxypropyl)-3,4-dihydropyrrolo[4,3,2-de][2,6]naphthyridin-5(1H)-one], the IC50 was 316 nM at JAK3 and 398 nM on JAK2.

Take `CC(C)[C@H](C(=O)N(C)CCS(C)(=O)=O)N1Cc2c(F)cnc3[nH]cc(c23)C1=O` [Example 78, (R)-2-(6-fluoro-3-oxopyrrolo[4,3,2-de][2,6]naphthyridin-4(1H,3H,5H)-yl)-N,3-dimethyl-N-(2-(methylsulfonyl)ethyl)butanamide]: the IC50 was 3980 nM on JAK3 and 10000 nM on JAK2.

Consider `CC[C@H](C(=O)N1CCC(COC)C1)N1Cc2ccnc3[nH]cc(c23)C1=O` (stereo partly drawn) [Example 60, 4-((2R)-1-(3-(methoxymethyl)pyrrolidin-1-yl)-1-oxobutan-2-yl)-4,5-dihydropyrrolo[4,3,2-de][2,6]naphthyridin-3(1 H)-one], for which the IC50 is 794 nM at JAK3 and 10000 nM at JAK2.

As for `CC(C)(C)OC(=O)N1CCC(CN2Cc3c[nH]c4nccc(c34)C2=O)C1` (stereo not shown) [Example 12, Tert-Butyl 3-((5-oxopyrrolo[4,3,2-de][2,6]naphthyridin-4(1H,3H,5H)-yl)methyl)pyrrolidine-1-carboxylate], the IC50 on JAK3 is 7940 nM; at JAK2, 3160 nM.

For `CC(C)[C@H](C(=O)N1CCC(C#N)CC1)N1Cc2c(Cl)cnc3[nH]cc(c23)C1=O` [Example 34, (R)-1-(2-(6-chloro-3-oxopyrrolo[4,3,2-de][2,6]naphthyridin-4(1H,3H,5H)-yl)-3-methylbutanoyl)piperidine-4-carbonitrile], the IC50 at JAK3 is 15.8 nM; at JAK2, 251 nM.

As for `N#CC[C@H](C(=O)NC1CCCC1)N1Cc2c(Cl)cnc3[nH]cc(c23)C1=O` [Example 30, (R)-2-(6-chloro-3-oxopyrrolo[4,3,2-de][2,6]naphthyridin-4(1H,3H,5H)-yl)-3-cyano-N-cyclopentylpropanamide], the IC50 at JAK3 was 1260 nM; on JAK2 it was 3160 nM.

Consider `CC[C@@H](C(=O)N1CCCC1)N1Cc2ccnc3[nH]cc(c23)C1=O` [Example 18, (S)-4-(1-oxo-1-(pyrrolidin-1-yl)butan-2-yl)-4,5-dihydropyrrolo[4,3,2-de][2,6]naphthyridin-3(1H)-one], for which the IC50 on JAK3 and on JAK2 was 20000 nM each time.

With `CC[C@H](C(=O)NCC1CCCO1)N1Cc2ccnc3[nH]cc(c23)C1=O` (stereo partly drawn) [Example 74, (2R)-2-(3-oxopyrrolo[4,3,2-de][2,6]naphthyridin-4(1H,3H,5H)-yl)-N-((tetrahydrofuran-2-yl)methyl)butanamide], the values for the IC50 on JAK3 and on JAK2 were 794 nM and 7940 nM, respectively.

Regarding `CC[C@H](C(=O)NCC1CC1)N1Cc2ccnc3[nH]cc(c23)C1=O` [Example 66, (R)—N-(cyclopropylmethyl)-2-(3-oxopyrrolo[4,3,2-de][2,6]naphthyridin-4(1H,3H,5H)-yl)butanamide], the values for the IC50 at JAK3 and at JAK2 were 3980 nM and 20000 nM, respectively.

In the case of `CC(C)[C@H](C(=O)N1CCCC1)N1Cc2ccnc3[nH]cc(c23)C1=O` [Example 20, (R)-4-(3-methyl-1-oxo-1-(pyrrolidin-1-yl)butan-2-yl)-4,5-dihydropyrrolo[4,3,2-de][2,6]naphthyridin-3(1H)-one], the IC50 at JAK3 is 79.4 nM; at JAK2, 1580 nM.

For `CC[C@H](C(=O)NC1CCCC1)N1Cc2ccnc3[nH]cc(c23)C1=O` [Example 57, (R)—N-cyclopentyl-2-(3-oxopyrrolo[4,3,2-de][2,6]naphthyridin-4(1H,3H,5H)-yl)butanamide], the IC50 on JAK3 was 79.4 nM; at JAK2, 1580 nM.
